Active and inactive are the calls of the source.
Experiments:
Vero = assay: cells; format: functional, cell-based; settings: Chlorocebus sabaeus
Streptokinase A = target: T1, Streptokinase A (Streptococcus pyogenes serotype M1, UniProt P10520); assay: S. pyogenes streptokinase expression inhibitors, potency, dose response, plasminogen activation absorbance, OD405 (AID 1914); format: functional, Streptococcus pyogenes M1 GAS;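 note: secreted streptokinase activity via plasminogen activation per viability signal from cell pellet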
T1 sequence (P10520 whole entry): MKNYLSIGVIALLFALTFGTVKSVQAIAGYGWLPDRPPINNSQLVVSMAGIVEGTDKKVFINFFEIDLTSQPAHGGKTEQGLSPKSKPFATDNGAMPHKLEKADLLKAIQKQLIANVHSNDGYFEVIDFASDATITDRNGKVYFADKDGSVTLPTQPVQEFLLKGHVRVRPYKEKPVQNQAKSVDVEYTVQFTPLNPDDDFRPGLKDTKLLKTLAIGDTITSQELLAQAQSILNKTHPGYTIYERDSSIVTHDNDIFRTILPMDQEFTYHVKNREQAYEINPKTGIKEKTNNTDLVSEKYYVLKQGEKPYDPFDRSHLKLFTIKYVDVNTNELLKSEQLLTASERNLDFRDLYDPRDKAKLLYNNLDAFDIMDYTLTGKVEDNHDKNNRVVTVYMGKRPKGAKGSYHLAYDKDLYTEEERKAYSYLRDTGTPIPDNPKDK

[1] = system: Streptococcus sp. 'group A'; assay: growth inhibition of control SK(-) GAS strain, dose response, counter-screen for streptokinase expression inhibitor project, luminescence, kanamycin, BacTiterGlo, confirmation (AID 1900); format: functional, organism-based
[2] = target: Disintegrin and metalloproteinase domain-containing protein 17 (Homo sapiens, UniProt P78536); assay: ADAM17 protease inhibitors, dose response, counter-screen for ADAM10 exosite inhibitor project, biochemical, quenched FRET substrate (AID 743253)
Sequence of Disintegrin and metalloproteinase domain-containing protein 17 (P78536 whole entry, the tested form may be a part): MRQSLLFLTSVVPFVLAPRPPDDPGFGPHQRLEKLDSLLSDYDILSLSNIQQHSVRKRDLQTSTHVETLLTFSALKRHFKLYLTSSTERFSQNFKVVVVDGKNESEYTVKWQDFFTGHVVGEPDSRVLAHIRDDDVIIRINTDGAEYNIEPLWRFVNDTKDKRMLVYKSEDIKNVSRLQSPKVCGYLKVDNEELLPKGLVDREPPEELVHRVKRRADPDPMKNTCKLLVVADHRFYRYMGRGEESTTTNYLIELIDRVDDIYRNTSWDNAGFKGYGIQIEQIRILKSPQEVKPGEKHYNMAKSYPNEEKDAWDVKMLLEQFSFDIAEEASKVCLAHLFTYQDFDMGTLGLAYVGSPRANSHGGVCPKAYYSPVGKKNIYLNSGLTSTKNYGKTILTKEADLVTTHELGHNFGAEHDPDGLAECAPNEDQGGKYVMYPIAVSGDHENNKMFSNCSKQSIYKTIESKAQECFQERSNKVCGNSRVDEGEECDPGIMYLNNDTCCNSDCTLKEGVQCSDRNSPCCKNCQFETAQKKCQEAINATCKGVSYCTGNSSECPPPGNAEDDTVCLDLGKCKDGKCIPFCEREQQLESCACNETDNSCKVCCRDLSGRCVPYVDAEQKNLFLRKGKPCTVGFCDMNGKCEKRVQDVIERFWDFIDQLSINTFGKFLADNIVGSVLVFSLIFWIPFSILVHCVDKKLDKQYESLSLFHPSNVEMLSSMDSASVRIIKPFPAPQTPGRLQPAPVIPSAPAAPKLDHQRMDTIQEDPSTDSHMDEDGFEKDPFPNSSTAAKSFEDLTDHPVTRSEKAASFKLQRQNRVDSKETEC

Streptococcus = assay: Group A Streptococcus viability loss, dose response, counter-screen for streptokinase expression inhibitor project, luminescence, BacTiterGlo (AID 1915); format: functional, organism-based;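 note: potency for reduction of bacterial viability or growth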
[3] = target: T2, Replicative DNA helicase DnaB (Mycobacterium tuberculosis, UniProt P9WMR3); assay: DnaB intein splicing inhibitors, dose response, biochemical, cell-free fluorescence (AID 449749); format: functional
T2 sequence (P9WMR3 whole entry): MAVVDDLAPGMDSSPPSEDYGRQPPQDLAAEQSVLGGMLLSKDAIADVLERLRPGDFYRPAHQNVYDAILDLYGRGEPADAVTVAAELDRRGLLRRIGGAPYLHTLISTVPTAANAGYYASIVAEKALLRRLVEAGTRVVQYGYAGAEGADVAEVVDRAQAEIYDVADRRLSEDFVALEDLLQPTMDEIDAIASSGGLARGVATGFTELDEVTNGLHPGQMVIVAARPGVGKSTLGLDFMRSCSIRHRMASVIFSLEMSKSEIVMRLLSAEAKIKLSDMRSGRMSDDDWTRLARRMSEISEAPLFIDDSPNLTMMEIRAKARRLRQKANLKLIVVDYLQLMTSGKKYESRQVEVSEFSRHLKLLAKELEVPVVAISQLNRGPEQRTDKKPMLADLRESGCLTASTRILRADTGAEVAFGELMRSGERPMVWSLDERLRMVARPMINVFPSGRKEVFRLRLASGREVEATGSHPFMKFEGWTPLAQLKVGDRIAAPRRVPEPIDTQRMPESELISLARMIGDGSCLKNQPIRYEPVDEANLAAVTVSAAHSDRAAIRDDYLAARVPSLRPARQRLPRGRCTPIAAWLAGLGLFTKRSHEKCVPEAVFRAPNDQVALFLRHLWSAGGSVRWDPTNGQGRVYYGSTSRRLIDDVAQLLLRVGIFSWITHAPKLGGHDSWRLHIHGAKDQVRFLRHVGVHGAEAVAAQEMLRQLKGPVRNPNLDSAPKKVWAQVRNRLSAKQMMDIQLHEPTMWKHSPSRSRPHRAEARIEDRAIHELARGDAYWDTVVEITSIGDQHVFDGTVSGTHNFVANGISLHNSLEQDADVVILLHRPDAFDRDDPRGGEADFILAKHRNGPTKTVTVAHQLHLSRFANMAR

[4] = microbe, parasite or virus in culture; format: functional; settings: Mycobacterium tuberculosis
Protein RecA = target: T3, Protein RecA (Mycobacterium tuberculosis, UniProt P9WHJ3); assay: Fluorescence Cell-Free Homogeneous Dose Retest to Identify Inhibitors of RecA-Intein Splicing Activity. [Related pubchem assays (depositor defined):AID2097, AID2223, AID489010, AID492950]; format: functional
T3 sequence (P9WHJ3 whole entry): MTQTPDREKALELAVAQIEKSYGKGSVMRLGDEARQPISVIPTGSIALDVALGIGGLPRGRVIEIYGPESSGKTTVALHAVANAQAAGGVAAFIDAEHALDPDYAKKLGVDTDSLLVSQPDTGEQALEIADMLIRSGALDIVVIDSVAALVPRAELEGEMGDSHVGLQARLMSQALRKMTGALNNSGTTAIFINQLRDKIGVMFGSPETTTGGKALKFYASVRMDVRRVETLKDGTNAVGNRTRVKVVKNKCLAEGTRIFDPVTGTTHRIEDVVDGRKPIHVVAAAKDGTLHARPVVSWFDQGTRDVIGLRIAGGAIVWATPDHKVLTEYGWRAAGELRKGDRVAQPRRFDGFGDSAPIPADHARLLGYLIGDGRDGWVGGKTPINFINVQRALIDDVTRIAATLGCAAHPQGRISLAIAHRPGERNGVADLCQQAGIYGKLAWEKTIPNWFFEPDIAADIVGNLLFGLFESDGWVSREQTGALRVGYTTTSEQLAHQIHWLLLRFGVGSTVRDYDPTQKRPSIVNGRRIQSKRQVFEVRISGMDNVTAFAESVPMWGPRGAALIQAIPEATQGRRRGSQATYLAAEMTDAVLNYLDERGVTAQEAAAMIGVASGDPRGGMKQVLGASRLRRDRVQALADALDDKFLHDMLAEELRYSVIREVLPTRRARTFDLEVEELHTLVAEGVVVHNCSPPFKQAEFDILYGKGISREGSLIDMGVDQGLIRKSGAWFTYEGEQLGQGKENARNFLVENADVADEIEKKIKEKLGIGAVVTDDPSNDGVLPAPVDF

[5] = target: T4, Microphthalmia-associated transcription factor (Homo sapiens, UniProt O75030); assay: TRPM1 promoter luciferase signal decrease, dose response, MITF inhibitor project, cell-based, SK-MEL-5, cherry-picked, set 3 (AID 493073); format: functional
T4 sequence (O75030 whole entry): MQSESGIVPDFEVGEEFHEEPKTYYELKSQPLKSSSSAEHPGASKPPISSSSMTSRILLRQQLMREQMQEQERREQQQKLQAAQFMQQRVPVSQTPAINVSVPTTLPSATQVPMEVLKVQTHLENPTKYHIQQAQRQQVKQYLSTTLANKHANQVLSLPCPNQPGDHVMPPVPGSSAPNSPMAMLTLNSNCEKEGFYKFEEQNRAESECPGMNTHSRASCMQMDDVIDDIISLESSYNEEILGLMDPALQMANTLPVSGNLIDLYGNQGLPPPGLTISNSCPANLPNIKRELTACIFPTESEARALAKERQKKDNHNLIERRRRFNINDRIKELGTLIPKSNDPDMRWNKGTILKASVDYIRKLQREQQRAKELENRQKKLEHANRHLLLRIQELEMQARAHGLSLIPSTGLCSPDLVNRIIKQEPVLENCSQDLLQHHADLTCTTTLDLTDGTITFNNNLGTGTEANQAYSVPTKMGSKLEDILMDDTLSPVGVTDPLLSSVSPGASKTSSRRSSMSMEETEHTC

H9c2 = assay: cells; format: functional, cell-based; settings: Rattus norvegicus, H9c2, Myocardium;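 note: confirmatory concentration-response retest of ultra-high-throughput screening hits for modulation of myocardial damage; cell death induced by hydrogen peroxide oxidative stress; compound pretreatment for 60 min then peroxide exposure for 2 h; potency is for protecting the cells against peroxide damage rather than for killing them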
[6] = inhibitors of HIV Env-driven cell fusion, dose response, cherry-pick (AID 652057); format: functional, cell-based
[7] = inhibitors of clade B AD8 Env fusion, dose response, cell-based, cherry-pick (AID 652062); format: functional;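 note: luciferase signal from cell-cell fusion driven by HIV-1 clade B AD8 Env; potency is for inhibitors of fusion seen as a drop in luminescence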
[8] = off-target signal loss in HeLa-CEM21 co-culture – HeLa F-luc CTL cells, cherry-picked, counter-screen for HIV-1 Env fusion inhibitor project, dose response (AID 652040); format: functional, cell-based;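 note: potency for signal decrease marking cytotoxic or nonspecific inhibition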
[9] = ZM109 Env clade C HIV-1 fusion inhibitors, dose response, HeLa effector, CEM target cells, luciferase, cherry-pick (AID 652058); format: functional, cell-based
cells = format: functional
[10] = THP-1 cell cytotoxicity, dose response, cytotoxicity control for non-replicating M. tuberculosis project (AID 489025); format: functional
[11] = Vero E6 cell cytotoxicity, dose response, cytotoxicity control for non-replicating M. tuberculosis project, secondary assay (AID 492998); format: functional, VeroE6; settings: Vero C1008
[12] = inhibitors of SNCA 5'UTR-driven reporter translation, confirmation, H4 neuroglioma cells, luminescence (AID 1988); format: functional, cell-based
[13] = Luminescence Cell-Based Dose Response HTS to Identify Inhibitors of 5'UTR Stem-Loop Driven Prion Protein mRNA Translation in H4 Neuroglioblastoma Cells. [Related pubchem assays: 1827 (Project Summary), 1813 (Primary HTS)]; format: functional
[14] = inhibitors of firefly luciferase expression or activity, dose response, H4 neuroglioma cells, luminescence (AID 1990); format: functional, cell-based
[15] = intracellular Trypanosoma cruzi inhibitors in host cells – cell-based, plate reader, cherry-pick samples, set 3, dose response (AID 651818); format: functional;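 note: compounds incubated with infected cells for about four days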
Paired box protein Pax-8 = Paired box protein Pax-8 (Homo sapiens, UniProt Q06710); assay: inhibitors of PAX8-driven TPO luciferase reporter, dose response, RMG-I cells, cherry-pick (AID 687027); format: functional, cell-based;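 note: luciferase reporter driven by Pax8 target thyroperoxidase promoter measured by SteadyGlo luminescence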
Sequence of Paired box protein Pax-8 (Q06710 whole entry): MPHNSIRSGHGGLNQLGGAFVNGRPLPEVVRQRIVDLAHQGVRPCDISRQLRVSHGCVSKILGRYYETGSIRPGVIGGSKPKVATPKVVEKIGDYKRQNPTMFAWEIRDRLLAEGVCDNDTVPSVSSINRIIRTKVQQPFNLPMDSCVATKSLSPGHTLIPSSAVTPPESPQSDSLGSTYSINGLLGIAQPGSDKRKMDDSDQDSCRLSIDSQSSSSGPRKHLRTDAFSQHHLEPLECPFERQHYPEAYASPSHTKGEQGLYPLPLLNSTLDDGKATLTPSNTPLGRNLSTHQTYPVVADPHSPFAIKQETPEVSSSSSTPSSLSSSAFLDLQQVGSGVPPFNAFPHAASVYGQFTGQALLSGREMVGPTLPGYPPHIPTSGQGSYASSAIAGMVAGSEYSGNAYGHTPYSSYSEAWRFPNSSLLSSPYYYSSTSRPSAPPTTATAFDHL

COCCN=C(S)NCc1ccc2[nH]c3c(c2c1)CCCC3
IC50 (Vero): 23.6 µM (active)

O=C(OCc1csc(Nc2ccccc2)n1)c1ccc(Cl)cc1
EC50 (Streptokinase A): 34.2 µM (active)
EC50 [1]: 12.8 µM (active)
IC50 [2]: > 69.5 µM (inactive)
EC50 (Streptococcus): > 150 µM (not active)

Cc1ccc(NC(=O)CCl)cc1S(=O)(=O)N1CCCCCC1
AC50 [3]: 14.7 µM (active)
CC50 [4]: 6.13 µM (active)
EC50 (Protein RecA): 3.67 µM (active)
AC50 [5]: 7.55 µM (active)

O=C1OCCN1C(=O)[C@H]1[C@H](c2ccc([N+](=O)[O-])cc2)C(c2cccc(Cl)c2)=NN1c1ccc(Br)cc1
IC50 (H9c2): > 79 µM (inactive)
IC50 [2]: > 69.5 µM (inactive)

COc1ccc(N2C(=O)N3[C@H](c4ccc(Cl)cc4)[C@@H]4C(=O)N(C5CCCCC5)C(=O)[C@@H]4[C@]3(C)C2=O)cc1
AC50 [6]: 2.73 µM (active)
AC50 [7]: 5.1 µM (active)
AC50 [8]: 3.54 µM (active)
AC50 [9]: 3.16 µM (active)

Cc1cc(C)n2nc(NCc3cccc(Br)c3)nc2n1
AC50 [6]: 7.45 µM (active)
AC50 [7]: 2.92 µM (active)
AC50 [8]: 7.14 µM (active)
AC50 [9]: 7.3 µM (active)

COc1ccc(CCn2c(=S)[nH]c3cc(C(=O)NCc4ccco4)ccc3c2=O)cc1OC
AC50 [5]: 17.7 µM (active)

O=C(NNC1=Nc2ccccc2SC1)c1ccc(F)cc1
EC50 (Streptokinase A): > 150 µM (not active)
IC50 (cells): 23.5 µM (active)
EC50 [1]: 3.72 µM (active)
CC50 [10]: > 40 µM (active)
CC50 [11]: > 20 µM (active)
EC50 (Streptococcus): 15.6 µM (active)

CCc1ccc(-c2cc3c(=O)n(CC(=O)NCCCN4CCN(CC)CC4)nc(C)n3n2)cc1
IC50 (Vero): > 25 µM (active)

COc1cc(OC)cc(C(=O)NNC(=O)c2ccccn2)c1
EC50 [12]: > 120 µM (not active)
IC50 (H9c2): > 79 µM (inactive)
IC50 (cells): 9.73 µM (active)
EC50 [13]: 11.2 µM (active)
EC50 [14]: 11.6 µM (active)
CC50 [10]: 10.6 µM (active)
CC50 [11]: 12.6 µM (active)

COc1ccc(S(=O)(=O)Nc2ccc3c(c2)CC(=O)N([C@H](C)CO)C[C@@H](C)[C@H](CN(C)Cc2ccc(Cl)c(Cl)c2)O3)cc1
AC50 [15]: 1.94 µM (active)

C[C@@H]1CN([C@@H](C)CO)C(=O)c2cccc(NC(=O)c3nc4ccccc4s3)c2O[C@@H]1CN(C)Cc1ccc(C(=O)Nc2ccccc2N)cc1
AC50 [15]: 2.88 µM (active)

Cc1ccc(S(=O)(=O)Nc2ccc3c(c2)CC(=O)N([C@@H](C)CO)C[C@H](C)[C@@H](CN(C)Cc2ccc(C(=O)Nc4ccccc4N)cc2)O3)cc1
AC50 [15]: 2.74 µM (active)

C[C@@H]1CN([C@H](C)CO)C(=O)Cc2cc(NC(=O)Nc3cccc4ccccc34)ccc2O[C@H]1CN(C)Cc1ccc(C(F)(F)F)cc1
AC50 [15]: 3.46 µM (active)

C[C@H](CO)N1C[C@H](C)[C@@H](CN(C)Cc2ccc(Oc3ccccc3)cc2)Oc2c(NS(=O)(=O)c3ccc(Cl)cc3)cccc2C1=O
AC50 [15]: 3.36 µM (active)

C[C@@H]1CN([C@H](C)CO)C(=O)Cc2cc(NC(=O)Nc3ccc(F)cc3)ccc2O[C@@H]1CN(C)Cc1ccc(Cl)c(Cl)c1
AC50 (Paired box protein Pax-8): 18.4 µM (active)
AC50 [15]: 4.89 µM (active)

Reference: ChEMBL document CHEMBL1201862, “PubChem BioAssay data set” (2004)
